In PubChem BioAssay (NCI):
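The compound was tested at five concentrations on cells cultured in 96-well plates, with a 48-hour exposure period. The concentration for 50% growth inhibition is given as GI50. Definition used: TGI = concentration required for complete inhibition of growth.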

Tests used:
Experiment in all cases: NCI-60 cell line screen, 48 h
786-0 renal = system: 786-0 renal
A498 renal = system: A498 renal
A549 NSCLC = system: A549 NSCLC
ACHN renal = system: ACHN renal
BT-549 breast = system: BT-549 breast
CAKI-1 renal = system: CAKI-1 renal
COLO 205 colon = system: COLO 205 colon
EKVX NSCLC = system: EKVX NSCLC
HCC-2998 colon = system: HCC-2998 colon
HCT-15 colon = system: HCT-15 colon
HL-60(TB) leukemia = system: HL-60(TB) leukemia
HOP-62 NSCLC = system: HOP-62 NSCLC
HT29 colon = system: HT29 colon
IGROV1 ovarian = system: IGROV1 ovarian
KM12 colon = system: KM12 colon
LOX IMVI melanoma = system: LOX IMVI melanoma
M14 melanoma = system: M14 melanoma
MALME-3M melanoma = system: MALME-3M melanoma
MDA-MB-435 = system: MDA-MB-435
MDA-N = system: MDA-N
NCI-H522 lung = system: NCI-H522 lung
NCI/ADR-RES ovarian = system: NCI/ADR-RES ovarian
OVCAR-3 ovarian = system: OVCAR-3 ovarian
OVCAR-5 ovarian = system: OVCAR-5 ovarian
OVCAR-8 ovarian = system: OVCAR-8 ovarian
RXF 393 renal = system: RXF 393 renal
SF-295 CNS = system: SF-295 CNS
SF-539 CNS = system: SF-539 CNS
SK-MEL-2 melanoma = system: SK-MEL-2 melanoma
SK-MEL-28 melanoma = system: SK-MEL-28 melanoma
SK-MEL-5 melanoma = system: SK-MEL-5 melanoma
SK-OV-3 ovarian = system: SK-OV-3 ovarian
TK-10 renal = system: TK-10 renal
U251 CNS = system: U251 CNS
UACC-257 melanoma = system: UACC-257 melanoma
UO-31 renal = system: UO-31 renal
CCRF-CEM leukemia = system: CCRF-CEM leukemia
DU-145 prostate = system: DU-145 prostate
HCT-116 colon = system: HCT-116 colon
HOP-92 NSCLC = system: HOP-92 NSCLC
HS 578T breast = system: HS 578T breast
K-562 leukemia = system: K-562 leukemia
MCF7 breast = system: MCF7 breast
MDA-MB-231 breast = system: MDA-MB-231 breast
MOLT-4 leukemia = system: MOLT-4 leukemia
NCI-H226 lung = system: NCI-H226 lung
NCI-H23 lung = system: NCI-H23 lung
NCI-H460 lung = system: NCI-H460 lung
OVCAR-4 ovarian = system: OVCAR-4 ovarian
PC-3 prostate = system: PC-3 prostate
RPMI-8226 leukemia = system: RPMI-8226 leukemia
SF-268 CNS = system: SF-268 CNS
SN12C renal = system: SN12C renal
SNB-19 CNS = system: SNB-19 CNS
SNB-75 CNS = system: SNB-75 CNS
SR leukemia = system: SR leukemia
SW-620 colon = system: SW-620 colon
T-47D breast = system: T-47D breast
UACC-62 melanoma = system: UACC-62 melanoma

Cc1sc2nc(-c3cccc([N+](=O)[O-])c3)c(/C=N/N=C(N)N)n2c1C
TGI (786-0 renal): 3.22 µM
TGI (A498 renal): 2.88 µM
TGI (A549 NSCLC): 3.02 µM
TGI (ACHN renal): 3.08 µM
TGI (BT-549 breast): 2.83 µM
TGI (CAKI-1 renal): 3.77 µM
TGI (COLO 205 colon): 3.72 µM
TGI (EKVX NSCLC): 3.06 µM
TGI (HCC-2998 colon): 2.61 µM
TGI (HCT-15 colon): 3.03 µM
TGI (HL-60(TB) leukemia): 3.63 µM
TGI (HOP-62 NSCLC): 3.1 µM
TGI (HT29 colon): 2.98 µM
TGI (IGROV1 ovarian): 2.59 µM
TGI (KM12 colon): 3.24 µM
TGI (LOX IMVI melanoma): 3.16 µM
TGI (M14 melanoma): 2.95 µM
TGI (MALME-3M melanoma): 3.71 µM
TGI (MDA-MB-435): 3.18 µM
TGI (MDA-N): 3.15 µM
TGI (NCI-H522 lung): 3.17 µM
TGI (NCI/ADR-RES ovarian): 45.1 µM
TGI (OVCAR-3 ovarian): 4.02 µM
TGI (OVCAR-5 ovarian): 3.06 µM
TGI (OVCAR-8 ovarian): 3.23 µM
TGI (RXF 393 renal): 3.22 µM
TGI (SF-295 CNS): 2.95 µM
TGI (SF-539 CNS): 3.72 µM
TGI (SK-MEL-2 melanoma): 3.09 µM
TGI (SK-MEL-28 melanoma): 3.03 µM
TGI (SK-MEL-5 melanoma): 3.03 µM
TGI (SK-OV-3 ovarian): 3.3 µM
TGI (TK-10 renal): 2.84 µM
TGI (U251 CNS): 3.07 µM
TGI (UACC-257 melanoma): 3.06 µM
TGI (UO-31 renal): 3.13 µM

COc1ccc2[nH]c3c4[nH]c5ccc(OC)cc5c4c4c(c3c2c1)C(=O)NC4=O
GI50 (786-0 renal): > 12.9 µM
TGI (786-0 renal): > 25 µM
GI50 (A498 renal): 7.36 µM
TGI (A498 renal): > 25 µM
GI50 (A549 NSCLC): > 9.75 µM
TGI (A549 NSCLC): > 25 µM
GI50 (ACHN renal): > 6.71 µM
TGI (ACHN renal): > 25 µM
GI50 (BT-549 breast): > 9.4 µM
TGI (BT-549 breast): > 25 µM
GI50 (CAKI-1 renal): 1.77 µM
TGI (CAKI-1 renal): > 25 µM
GI50 (CCRF-CEM leukemia): 0.757 µM
TGI (CCRF-CEM leukemia): > 25 µM
GI50 (COLO 205 colon): > 25 µM
TGI (COLO 205 colon): > 25 µM
GI50 (DU-145 prostate): > 15.1 µM
TGI (DU-145 prostate): > 25 µM
GI50 (EKVX NSCLC): > 25 µM
TGI (EKVX NSCLC): > 25 µM
GI50 (HCC-2998 colon): > 25 µM
TGI (HCC-2998 colon): > 25 µM
GI50 (HCT-116 colon): > 11 µM
TGI (HCT-116 colon): > 25 µM
GI50 (HCT-15 colon): > 14.3 µM
TGI (HCT-15 colon): > 25 µM
GI50 (HL-60(TB) leukemia): > 21.1 µM
TGI (HL-60(TB) leukemia): > 25 µM
GI50 (HOP-62 NSCLC): > 25 µM
TGI (HOP-62 NSCLC): > 25 µM
GI50 (HOP-92 NSCLC): > 25 µM
TGI (HOP-92 NSCLC): > 25 µM
GI50 (HS 578T breast): 1.35 µM
TGI (HS 578T breast): > 25 µM
GI50 (HT29 colon): > 25 µM
TGI (HT29 colon): > 25 µM
GI50 (IGROV1 ovarian): > 25 µM
TGI (IGROV1 ovarian): > 25 µM
GI50 (K-562 leukemia): > 6.63 µM
TGI (K-562 leukemia): > 25 µM
GI50 (KM12 colon): 1.76 µM
TGI (KM12 colon): > 25 µM
GI50 (LOX IMVI melanoma): > 13.1 µM
TGI (LOX IMVI melanoma): > 25 µM
GI50 (M14 melanoma): > 13.1 µM
TGI (M14 melanoma): > 25 µM
GI50 (MALME-3M melanoma): 12.4 µM
TGI (MALME-3M melanoma): > 25 µM
GI50 (MCF7 breast): > 25 µM
TGI (MCF7 breast): > 25 µM
GI50 (MDA-MB-231 breast): > 25 µM
TGI (MDA-MB-231 breast): > 25 µM
GI50 (MDA-MB-435): > 12.6 µM
TGI (MDA-MB-435): > 25 µM
GI50 (MOLT-4 leukemia): > 10.3 µM
TGI (MOLT-4 leukemia): > 25 µM
GI50 (NCI-H226 lung): > 25 µM
TGI (NCI-H226 lung): > 25 µM
GI50 (NCI-H23 lung): > 14.4 µM
TGI (NCI-H23 lung): > 25 µM
GI50 (NCI-H460 lung): > 10.3 µM
TGI (NCI-H460 lung): > 25 µM
GI50 (NCI-H522 lung): 2.32 µM
TGI (NCI-H522 lung): > 25 µM
GI50 (NCI/ADR-RES ovarian): > 25 µM
TGI (NCI/ADR-RES ovarian): > 25 µM
GI50 (OVCAR-3 ovarian): > 11.2 µM
TGI (OVCAR-3 ovarian): > 25 µM
GI50 (OVCAR-4 ovarian): > 25 µM
TGI (OVCAR-4 ovarian): > 25 µM
GI50 (OVCAR-5 ovarian): > 25 µM
TGI (OVCAR-5 ovarian): > 25 µM
GI50 (OVCAR-8 ovarian): > 13.2 µM
TGI (OVCAR-8 ovarian): > 25 µM
GI50 (PC-3 prostate): > 15.7 µM
TGI (PC-3 prostate): > 25 µM
GI50 (RPMI-8226 leukemia): 0.998 µM
TGI (RPMI-8226 leukemia): > 25 µM
TGI (RXF 393 renal): > 15.4 µM
GI50 (SF-268 CNS): > 22 µM
TGI (SF-268 CNS): > 25 µM
GI50 (SF-295 CNS): > 15.7 µM
TGI (SF-295 CNS): > 25 µM
GI50 (SF-539 CNS): 1.31 µM
TGI (SF-539 CNS): > 17 µM
GI50 (SK-MEL-2 melanoma): 12.2 µM
TGI (SK-MEL-2 melanoma): > 25 µM
GI50 (SK-MEL-28 melanoma): > 25 µM
TGI (SK-MEL-28 melanoma): > 25 µM
GI50 (SK-MEL-5 melanoma): > 22 µM
TGI (SK-MEL-5 melanoma): > 25 µM
GI50 (SK-OV-3 ovarian): > 25 µM
TGI (SK-OV-3 ovarian): > 25 µM
GI50 (SN12C renal): 1.19 µM
TGI (SN12C renal): > 25 µM
GI50 (SNB-19 CNS): > 25 µM
TGI (SNB-19 CNS): > 25 µM
GI50 (SNB-75 CNS): > 13.2 µM
TGI (SNB-75 CNS): > 25 µM
GI50 (SR leukemia): 1.29 µM
TGI (SR leukemia): > 25 µM
GI50 (SW-620 colon): > 25 µM
TGI (SW-620 colon): > 25 µM
GI50 (T-47D breast): > 25 µM
TGI (T-47D breast): > 25 µM
GI50 (TK-10 renal): > 7.63 µM
TGI (TK-10 renal): > 25 µM
GI50 (U251 CNS): > 8.42 µM
TGI (U251 CNS): > 25 µM
GI50 (UACC-257 melanoma): > 25 µM
TGI (UACC-257 melanoma): > 25 µM
GI50 (UACC-62 melanoma): > 25 µM
TGI (UACC-62 melanoma): > 25 µM
GI50 (UO-31 renal): 0.654 µM
TGI (UO-31 renal): > 25 µM

CC(=O)ONC(C(=O)C(C)(C)C)C(=O)C(C)(C)C
TGI (786-0 renal): > 100 µM
TGI (A498 renal): > 100 µM
TGI (A549 NSCLC): > 100 µM
TGI (ACHN renal): > 100 µM
TGI (CAKI-1 renal): > 100 µM
TGI (CCRF-CEM leukemia): > 100 µM
TGI (COLO 205 colon): > 100 µM
TGI (DU-145 prostate): > 100 µM
TGI (EKVX NSCLC): > 100 µM
TGI (HCC-2998 colon): > 100 µM
TGI (HCT-116 colon): > 100 µM
TGI (HCT-15 colon): > 100 µM
TGI (HL-60(TB) leukemia): > 100 µM
TGI (HOP-62 NSCLC): > 100 µM
TGI (HOP-92 NSCLC): > 100 µM
TGI (HS 578T breast): > 100 µM
TGI (HT29 colon): > 100 µM
TGI (IGROV1 ovarian): > 100 µM
TGI (K-562 leukemia): > 100 µM
TGI (KM12 colon): > 100 µM
TGI (LOX IMVI melanoma): > 100 µM
TGI (M14 melanoma): > 100 µM
TGI (MALME-3M melanoma): > 100 µM
TGI (MCF7 breast): > 100 µM
TGI (MDA-MB-231 breast): > 100 µM
TGI (MDA-N): > 100 µM
TGI (MOLT-4 leukemia): > 100 µM
TGI (NCI-H226 lung): > 100 µM
TGI (NCI-H23 lung): > 100 µM
TGI (NCI-H460 lung): > 100 µM
TGI (NCI-H522 lung): > 100 µM
TGI (NCI/ADR-RES ovarian): > 100 µM
TGI (OVCAR-3 ovarian): > 100 µM
TGI (OVCAR-4 ovarian): > 100 µM
TGI (OVCAR-5 ovarian): > 100 µM
TGI (OVCAR-8 ovarian): > 100 µM
TGI (PC-3 prostate): > 100 µM
TGI (RPMI-8226 leukemia): > 100 µM
TGI (RXF 393 renal): > 100 µM
TGI (SF-268 CNS): > 100 µM
TGI (SF-295 CNS): > 100 µM
TGI (SF-539 CNS): > 100 µM
TGI (SK-MEL-2 melanoma): > 100 µM
TGI (SK-MEL-28 melanoma): > 100 µM
TGI (SK-MEL-5 melanoma): > 100 µM
TGI (SK-OV-3 ovarian): > 100 µM
TGI (SN12C renal): > 100 µM
TGI (SNB-19 CNS): > 100 µM
TGI (SNB-75 CNS): > 100 µM
TGI (SW-620 colon): > 100 µM
TGI (T-47D breast): > 100 µM
TGI (TK-10 renal): > 100 µM
TGI (U251 CNS): > 100 µM
TGI (UACC-257 melanoma): > 100 µM
TGI (UO-31 renal): > 100 µM
